Consider 1 compound from patent US6251882A, “Alkyl ketones as potent anti-cancer agents” (Parker Hughes Institute, priority 1999, dated 2001).

The test system of one assay is PC-3 (prostate cancer). Description: MTT cytotoxicity assay, PC-3. Type of assay: cell-based. As to conditions: 24-36 hours at 37° C., 0.1 to 250 μM. The method, boiled down: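 PC-3 cells seeded at 2.5×10^4/well, grown 36 h, then exposed to compound at 0.1–250 μM for 24–36 h at 37 °C, in triplicate. MTT (0.5 mg/ml final) added for 4 h, formazan read at 540 nm, converted to cell number via standard curves; IC50 by non-linear regression of percent survival.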
On the technique in general: Tetrazolium dyes change colour on reduction, which living cells bring about.

For another assay, the system named is U-373 (glioblastoma). Put plainly: MTT cytotoxicity assay, U-373. Format: cell-based. As to conditions: Homo sapiens, U373 MG, 24-36 hours at 37° C., 0.1 to 250 μM. The method, boiled down: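 Cells were seeded at 2.5×10^4/well, grown 36 h, then exposed to compound at 0.1–250 μM in triplicate for 24–36 h at 37 °C. MTT (0.5 mg/ml final) was added for 4 h, and formazan was solubilised in SDS/HCl and read at 540 nm. Live-cell numbers came from standard curves, and IC50 values came from non-linear regression of percent survival.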

For the next assay, the system named is NALM-6 cells. Description: Apoptosis induction, NALM-6 cells (in situ TUNNEL, confocal microscopy). Format: cell-based, human. Here is the method: The ability of HI-131 to induce apoptosis cells was evaluated in human leukemia in NALM-6 cells and primary leukemic cells from 2 patients. Cells were treated with 50 μM compound HI-131 for 24 hours. After incubation, the cells were harvested and analyzed for apoptosis by in situ TUNNEL analysis and confocal laser scanning microscopy as described in Sudbeck et al., 1999, Clin Cancer Res., 5:1589-82. Controls were treated with vehicle alone.
Induction of apoptosis was further evaluated in primary leukemic cells and established NALM-6 and MOLT-3 cell lines following treatment with HI-131.

In assay [1] the test system is MDA-MB-231 breast cancer cells. Put plainly: Adhesion assay to ECM proteins, MDA-MB-231. Format: cell-based, human. As to conditions: laminin, fibronectin or type IV collagen; 16 hours (FIG. 6). Here is the method:
(§1) A human brain tumor cell line derived from an adult patient with glioblastoma, U-373 MG (Cat. #HTB-17) and MDA-MB-231 breast cancer cells (Cat. #HTB-26) were obtained from American Type Culture Collection (ATCC, Manassas, Va.) and maintained in liquid culture using DMEM supplemented with 10% fetal bovine serum and antibiotics. Fibroblast conditioned medium was used as a source of chemoattractant in vitro invasion assays. Conditioned medium was prepared as described previously (Albini, et al., 1987, Cancer Res., 47:3239-3245). […]
(§2) In adhesion assays, cells were centrifuged, washed twice with serum-free DMEM, counted and resuspended in serum-free DMEM to a final concentration of 2.5×10^5 cells/ml. […] The adherent fraction was quantitated using MTT (3-[4,5-dimethylthiazol-2-yl]-2,5-diphenyltetrazolium bromide) assays. […] The absorbance of each well was measured in a microplate reader (Labsystems) at […] and a reference wavelength of 690 nm. […] The adherent fraction of cells treated with HI-131 was compared to the DMSO-treated control cells and the percent adhesion relative to the control was determined.
(§3) Each treatment condition was evaluated in duplicate in 3 independent experiments. The IC50 values were calculated by non-linear regression analysis.

The subject of the next assay is U373 glioblastoma cells. Description: Adhesion assay to ECM proteins, U373. Format: cell-based, human. The conditions noted are these: laminin, fibronectin or type IV collagen; 16 hours (FIG. 7). Here is the method: as §1, §2, §3

With `CCCCCCCCCCCCSC[C@H](NC(C)=O)C(=O)CCl` [HI-131, N-Ac-S-dodecyl-Cys chloromethyl ketone], the IC50 in the assay with PC-3 (prostate cancer) stood at 22.1 µM; in the assay on U-373 (glioblastoma) it was 35.1 µM. For the same compound, in the assay on NALM-6 cells (50 μM, 24 hours), the “apoptosis induction (TUNNEL/confocal), NALM-6” value is listed as “greatly induced apoptosis”. In the assay with NALM-6 cells (Homo sapiens, NALM-6, 24 h, vs vehicle control (FIG. 3)), this compound had a fold induction at 50 µM of around 20. The “loss of adhesion, MDA-MB-231” value in assay [1] is recorded as “dose-dependent loss of adhesion”. The “loss of adhesion, U373” value with U373 glioblastoma cells was “dose-dependent loss of adhesion”.

As a reminder, the IC50 is the point on the concentration scale where inhibition reaches its midpoint. High values mean a need for much substance, low ones inhibition by little substance. In general, fold induction refers to the signal under treatment as a multiple of the control signal. A higher fold induction goes with a large rise in signal.
